What was measured:
Type in all cases: in vivo
[1] = system: male C57BL/6J mice fed a high fat Western Diet, with or without streptozotocin; assay: Acute Glucose Lowering Study (tail-vein blood glucose over 5 hours after a single dose); conditions: for average change in blood glucose measurement: 100 mg/kg, N=10
From the text: The studies reported below dosed male C57BL/6J mice with an EP3 antagonist, GW671021B, and monitored the effects on glucose homeostasis by measuring tail-vein blood glucose. The animals were either (a) fed a high fat diet to induce mild insulin resistance, or (b) were fed the high fat diet and also treated with a low dose of streptozotocin (which damages the pancreatic beta-cells) resulting in both insulin resistance and insulin deficiency (as in T2DM patients).
Materials and Methods: Male 6 week old C57BL/6J mice (Jackson Laboratory, Bar Harbor Me.) were made mildly insulin resistant by feeding a high fat Western Diet (WD) (Research Diets, D12079B) for 3 weeks. Test mice were then made insulin deficient by intraperitoneal injection (IP) with 100 mg/kg Streptozotocin (STZ or streptozocin; Zanosar®, Sicor Pharmaceuticals, Irvine, Calif.) reconstituted in citric acid. Control mice (also on the WD) were injected with the same volume and concentration of citric acid without the STZ. Two weeks after the STZ (or control citric acid) injections the mice received injections of either GW021 in vehicle, or vehicle alone (as described below). Student's t-test or Tukey's HSD (Honestly Significant Different) test was used to determine the significance of the results.
Acute Glucose Lowering Study: At 6:30 am mice were transferred to clean cages with water in the procedure room and allowed to acclimate for 1 hour. After acclimation, a small snip was made at the tip of the tail for blood collection and baseline glucose measurements were collected using the Bayer Elite XL glucometer. Mice were dosed with either compound GW671021B (100 mg/kg body weight) in a suspension in 0.5% HPMC, 0.1% Tween 80; or dosed with Vehicle only (HPMC, 0.1% Tween 80). Whole blood for glucose measurement was collected at 0.5, 1, 2, 3, 4, and 5 hours after dosing. […] There were 10 mice in each treatment group.
Data represent an average blood glucose measurement (mg/dL) of the 10 mice in each treatment group at each time point.

[2] = system: C57BL/6J mice fed a high fat diet (Western Diet) and treated with streptozocin; assay: 14 Day Chronic Study (glucose after 1st, 15th and 27th dose); conditions: 0, 7 and 13 days of treatment, twice daily dosing, compared to STZ treated mice without compound
Procedure: A 14 day chronic study in C57BL/6J mice was performed. The animals were fed a high fat diet (Western Diet) and treated with a low dose of streptozocin (which damages the pancreatic beta-cells) resulting in both insulin resistance and insulin deficiency (as in T2DM patients). Mice were prepared as generally described above in Example 2. Two weeks after injection of streptozocin, a twice daily dosing schedule was started with: • 1. GW67021B (10 mg/kg, 30 mg/kg, or 100 mg/kg); or • 2. CB-1 (Rimonabant, antagonist of the CB-1 receptor; commonly used as a positive control for weight-loss inducing drugs) at 5 mg/kg; or • 3. GW34784 (PPAR gamma agonist compound as another positive control) at 3 mg/kg (also referred to as GW845 or GW7845))
All compounds were dosed in suspension in 0.5% HPMC; 0.1% Tween 80 by body weight. The same general procedures used in the acute study (Example 2) were utilized in this chronic study. Glucose was measured following the 1st, 15th and 27th dose (day 0, 7, and 13) at 0, 1, 2, 3, 4, and 5 hour time points. Results are graphed in FIGS. 3a-3c for the groups of mice receiving WD+Streptozocin+Vehicle (no compound); WD+Streptozocin+GW021 10 mg/kg; WD+Streptozocin+GW021 30 mg/kg; WD+Streptozocin+GW021 100 mg/kg; WD+Streptozocin+GW845 3 mg/kg; WD+Streptozocin+CB-1 5 mg/kg.

[3] = system: streptozocin-treated mice fed a high-fat Western Diet; assay: Final Glucose Measurement on the 14th day (after 28th dose); conditions: compared to mice not treated with compound (FIG. 4)
Procedure: Groups of mice were maintained on diet and dosing schedules as described, and on the 14th day were moved to the procedure room, dosed with a final 28th dose (of compound or vehicle only, according to their group as shown in FIG. 4), then acclimated for about 1 hour with access to food and water before bleeding to measure blood glucose.
In FIG. 4 the first […] bars (from left to right) represent mice that were treated with STZ and vehicle only; STZ and GW021B 10 mg/kg; STZ and GW021 B 30 mg/kg; STZ and GW021 B 100 mg/kg; STZ and GW845 3 mg/kg. The seventh bar represents mice that were not treated with STZ (citric acid control) and were not treated with any compound (Vehicle only). “Vehicle” mice were dosed with HPMC/Tween only (no GW021, CB-1 or GW 845). Each bar represents an average of a single blood draw taken on day 14 from each of the ten mice in a group.

In the case of `COc1ccc(Br)cc1S(=O)(=O)[N-]C(=O)/C=C/c1ccccc1Cc1ccc2ccccc2c1.[Na+]` [GW021B], the “average change in blood glucose measurement” value (from here on “average change”) ([1]; WD + STZ mice, 0 hrs (baseline)) is reported as 0 mg/dL, the “average change” value ([1]; WD + STZ mice, 0.5 hrs after dosing) is reported as -16 mg/dL and the “average change” value ([1]; WD + STZ mice, 1 hr after dosing) is reported as -46 mg/dL. For the same compound, the “average change” value ([1]; WD + STZ mice, 2 hrs after dosing) was -59 mg/dL, the “average change” value ([1]; WD + STZ mice, 3 hrs after dosing) was -66 mg/dL and the “average change” value ([1]; WD + STZ mice, 4 hrs after dosing) was -83 mg/dL. For the same compound, the “average change” value ([1]; WD + STZ mice, 5 hrs after dosing) was -79 mg/dL, the “average change” value ([1]; WD + citric acid mice (no STZ), 0 hrs (baseline)) was 0 mg/dL and the “average change” value ([1]; WD + citric acid mice (no STZ), 0.5 hrs after dosing) was -14 mg/dL. The “average change” value ([1]; WD + citric acid mice (no STZ), 1 hr after dosing) was -14 mg/dL, the “average change” value ([1]; WD + citric acid mice (no STZ), 2 hrs after dosing) was -9 mg/dL and the “average change” value ([1]; WD + citric acid mice (no STZ), 3 hrs after dosing) was -18 mg/dL. The “average change” value ([1]; WD + citric acid mice (no STZ), 4 hrs after dosing) was -37 mg/dL, the “average change” value ([1]; WD + citric acid mice (no STZ), 5 hrs after dosing) was -37 mg/dL and the “effect on blood glucose (change compared to baseline), in words” value ([1]; streptozocin-treated C57BL/6J mice fed high-fat Western Diet, 5 hour time course) was “blood glucose lowering effect”. The “effect on glucose (change compared to baseline), in words” value [2] was “continued to have glucose lowering effects” and the “blood glucose level on the fourteenth day of treatment, in words” value [3] was “lower blood glucose levels”.
